Measurements: ChEMBL document CHEMBL2375302, “Synthesis, antimicrobial, antiquorum-sensing, antitumor and cytotoxic activities of new series of fused [1,3,4]thiadiazoles” (Eur J Med Chem, 2013)

Key:
IGROV-1 = assay: Growth inhibition of human IGROV1 cells at 10 uM after 48 hrs by coulter counter analysis relative to control; type: functional; conditions: IGROV-1, 48 h, read-out: GI
SNB-75 = assay: Growth inhibition of human SNB75 cells at 10 uM after 48 hrs by coulter counter analysis relative to control; type: functional; conditions: SNB-75, 48 h, read-out: GI
ACHN = assay: Growth inhibition of human ACHN cells at 10 uM after 48 hrs by coulter counter analysis relative to control; type: functional; conditions: read-out: GI
SK-MEL-28 = assay: Growth inhibition of human SK-MEL-28 cells at 10 uM after 48 hrs by coulter counter analysis relative to control; type: functional; conditions: SK-MEL-28, 48 h, read-out: GI
LOX IMVI = assay: Growth inhibition of human LOXIMVI cells at 10 uM after 48 hrs by coulter counter analysis relative to control; type: functional; conditions: read-out: GI
UO-31 = assay: Growth inhibition of human UO31 cells at 10 uM after 48 hrs by coulter counter analysis relative to control; type: functional; conditions: UO-31, 48 h, read-out: GI
K562 = assay: Growth inhibition of human K562 cells at 10 uM after 48 hrs by coulter counter analysis relative to control; type: functional; conditions: K562, 48 h, read-out: GI
Aspergillus flavus = assay: Antifungal activity against Aspergillus flavus 3372 at 5 mg/mL after 48 hrs; type: functional; conditions: Aspergillus flavus, 3372, 48 h; read-out: DIZ
SF-268 = assay: Growth inhibition of human SF268 cells at 10 uM after 48 hrs by coulter counter analysis relative to control; type: functional; conditions: SF-268, 48 h, read-out: GI
SF-295 = assay: Growth inhibition of human SF295 cells at 10 uM after 48 hrs by coulter counter analysis relative to control; type: functional; conditions: SF-295, 48 h, read-out: GI
786-0 = assay: Growth inhibition of human 786-0 cells at 10 uM after 48 hrs by coulter counter analysis relative to control; type: functional; conditions: 786-0, 48 h, read-out: GI
MOLT-4 = assay: Growth inhibition of human MOLT4 cells at 10 uM after 48 hrs by coulter counter analysis relative to control; type: functional; conditions: MOLT-4, 48 h, read-out: GI
Hs-578T = assay: Growth inhibition of human Hs578T cells at 10 uM after 48 hrs by coulter counter analysis relative to control; type: functional; conditions: read-out: GI
COLO 205 = assay: Growth inhibition of human COLO205 cells at 10 uM after 48 hrs by coulter counter analysis relative to control; type: functional; conditions: COLO 205, 48 h, read-out: GI
SF-539 = assay: Growth inhibition of human SF539 cells at 10 uM after 48 hrs by coulter counter analysis relative to control; type: functional; conditions: SF-539, 48 h, read-out: GI
MDA-MB-435 = assay: Growth inhibition of human MDA-MB-435 cells at 10 uM after 48 hrs by coulter counter analysis relative to control; type: functional; conditions: MDA-MB-435, 48 h, read-out: GI
[1] = Growth inhibition of human EKVX cells at 10 uM after 48 hrs by coulter counter analysis relative to control; type: functional; conditions: read-out: GI
TK-10 = assay: Growth inhibition of human TK10 cells at 10 uM after 48 hrs by coulter counter analysis relative to control; type: functional; conditions: TK-10, 48 h, read-out: GI
NCI-H460 = assay: Growth inhibition of human NCI-H460 cells at 10 uM after 48 hrs by coulter counter analysis relative to control; type: functional; conditions: NCI-H460, 48 h, read-out: GI
CAKI-1 = assay: Growth inhibition of human CAKI-1 cells at 10 uM after 48 hrs by coulter counter analysis relative to control; type: functional; conditions: CAKI-1, 48 h, read-out: GI
[2] = Toxicity against brine shrimp larvae assessed as mortality at 1000 ug/mL after 24 hrs by binocular microscopic analysis relative to control; type: organism-based; conditions: artemia salina, in vivo
RXF 393 = assay: Growth inhibition of human RXF393 cells at 10 uM after 48 hrs by coulter counter analysis relative to control; type: functional; conditions: RXF 393, 48 h, read-out: GI
Aspergillus fumigatus = assay: Antifungal activity against Aspergillus fumigatus Af293 at 5 mg/mL after 48 hrs; type: functional; conditions: Af293, 48 h, read-out: DIZ
MDA-MB-468 = assay: Growth inhibition of human MDA-MB-468 cells at 10 uM after 48 hrs by coulter counter analysis relative to control; type: functional; conditions: MDA-MB-468, 48 h, read-out: GI
SK-OV-3 = assay: Growth inhibition of human SKOV3 cells at 10 uM after 48 hrs by coulter counter analysis relative to control; type: functional; conditions: SK-OV-3, 48 h, read-out: GI
NCI-H522 = assay: Growth inhibition of human NCI-H522 cells at 10 uM after 48 hrs by coulter counter analysis relative to control; type: functional; conditions: NCI-H522, 48 h, read-out: GI
A549 = assay: Growth inhibition of human A549 cells at 10 uM after 48 hrs by coulter counter analysis relative to control; type: functional; conditions: A549, 48 h, read-out: GI
Malme-3M = assay: Growth inhibition of human MALME-3M cells at 10 uM after 48 hrs by coulter counter analysis relative to control; type: functional; conditions: read-out: GI
SR = assay: Growth inhibition of human SR cells at 10 uM after 48 hrs by coulter counter analysis relative to control; type: functional; conditions: read-out: GI
OVCAR-3 = assay: Growth inhibition of human OVCAR3 cells at 10 uM after 48 hrs by coulter counter analysis relative to control; type: functional; conditions: OVCAR-3, 48 h, read-out: GI
SK-MEL-5 = assay: Growth inhibition of human SK-MEL-5 cells at 10 uM after 48 hrs by coulter counter analysis relative to control; type: functional; conditions: SK-MEL-5, 48 h, read-out: GI
BT-549 = assay: Growth inhibition of human BT549 cells at 10 uM after 48 hrs by coulter counter analysis relative to control; type: functional; conditions: BT-549, 48 h, read-out: GI
SNB-19 = assay: Growth inhibition of human SNB19 cells at 10 uM after 48 hrs by coulter counter analysis relative to control; type: functional; conditions: SNB-19, 48 h, read-out: GI
OVCAR-5 = assay: Growth inhibition of human OVCAR5 cells at 10 uM after 48 hrs by coulter counter analysis relative to control; type: functional; conditions: OVCAR-5, 48 h, read-out: GI
DU-145 = assay: Growth inhibition of human DU145 cells at 10 uM after 48 hrs by coulter counter analysis relative to control; type: functional; conditions: DU-145, 48 h, read-out: GI
NCI-H23 = assay: Growth inhibition of human NCI-H23 cells at 10 uM after 48 hrs by coulter counter analysis relative to control; type: functional; conditions: NCI-H23, 48 h, read-out: GI
[3] = Growth inhibition of human HCC2998 cells at 10 uM after 48 hrs by coulter counter analysis relative to control; type: functional; conditions: HCC 2998, 48 h, read-out: GI
[4] = Toxicity against brine shrimp larvae assessed as mortality at 10 ug/mL after 24 hrs by binocular microscopic analysis relative to control; type: organism-based; conditions: artemia salina, in vivo

CCOC(=O)C1C(=O)N=C2SC(S(N)(=O)=O)=NN2C1c1ccc(N(C)C)cc1 (stereo not drawn) gave an inhibition of growth at 10 µM (IGROV-1) of under 10%, an inhibition of growth at 10 µM (SNB-75) of 10.1% and an inhibition of growth at 10 µM (ACHN) of under 10%. For the same molecule, the inhibition of growth at 10 µM (SK-MEL-28) was under 10%, the inhibition of growth at 10 µM (LOX IMVI) was 11.7% and the inhibition of growth at 10 µM (UO-31) was 14.7%. The inhibition of growth at 10 µM (K562) was under 10%, the zone of inhibition at 5000 µg/mL (Aspergillus flavus) was under 2 mm and the inhibition of growth at 10 µM (SF-268) was under 10%. The inhibition of growth at 10 µM (SF-295) was under 10%, the inhibition of growth at 10 µM (786-0) was under 10% and the inhibition of growth at 10 µM (MOLT-4) was under 10%. For the same molecule, the inhibition of growth at 10 µM (Hs-578T) was 18.5%, the inhibition of growth at 10 µM (COLO 205) was under 10% and the inhibition of growth at 10 µM (SF-539) was under 10%. It also gave an inhibition of growth at 10 µM (MDA-MB-435) of 21.3%, an inhibition of growth at 10 µM [1] of 12.2% and an inhibition of growth at 10 µM (TK-10) of under 10%. The inhibition of growth at 10 µM (NCI-H460) was under 10%, the inhibition of growth at 10 µM (CAKI-1) was 21.1% and the mortality at 24 h, 1000 ug/mL [2] was 100%. It also gave an inhibition of growth at 10 µM (RXF 393) of under 10%, a zone of inhibition at 5000 µg/mL (Aspergillus fumigatus) of 4 mm and an inhibition of growth at 10 µM (MDA-MB-468) of under 10%. For the same molecule, the inhibition of growth at 10 µM (SK-OV-3) was under 10%, the inhibition of growth at 10 µM (NCI-H522) was 19.3% and the inhibition of growth at 10 µM (A549) was under 10%. The inhibition of growth at 10 µM (Malme-3M) was 14.9%, the inhibition of growth at 10 µM (SR) was 10.3% and the inhibition of growth at 10 µM (OVCAR-3) was under 10%. For the same molecule, the inhibition of growth at 10 µM (SK-MEL-5) was under 10%, the inhibition of growth at 10 µM (BT-549) was under 10% and the inhibition of growth at 10 µM (SNB-19) was under 10%. The inhibition of growth at 10 µM (OVCAR-5) was under 10%, the inhibition of growth at 10 µM (DU-145) was under 10% and the inhibition of growth at 10 µM (NCI-H23) was under 10%. The inhibition of growth at 10 µM [3] was under 10% and the mortality at 24 h, 10 ug/mL [4] was 66.6%.
